The text below walks through data of patent US20250302837A1, “INHIBITORS OF CHYMASE FOR USE IN THE SELECTIVE RESOLUTION OF THROMBI IN THROMBOTIC OR THROMBOEMBOLIC DISORDERS” (SOCPRA SCIENCES SANTÉ ET HUMAINES S.E.C., priority 2022, published 2025).

In data set [1] the target is plasminogen/plasmin (Homo sapiens (Human), UniProt P00747). The data set can be described thus: Halo assay: tPA-induced fibrinolysis of human blood halos, plasmin inhibitor control. The note with it: 0.1 μM or 1 μM co-administered with tPA, pre-formed halo.
For data set [2], the target named is Factor Xa (Homo sapiens (Human), UniProt P00742). The data set can be described thus: Serine protease selectivity assay: factor Xa. In kind it is biochemical. Here is the method: (§1) The potency of test compounds against several other human serine proteases, including coagulation proteases, in buffer was analyzed in biochemical assays based on the fluorimetric detection of aminomethylcoumarine (AMC) cleaved from specific synthetic peptidic substrates by the respective proteases.
(§2) Serine protease assays were comprised of the following enzymes and substrates (final assay concentrations are given).
(§3) Test compounds were diluted in dimethylsulfoxide (DMSO) to final assay concentrations of 0-50 μM. The respective human serine protease and the respective substrate were diluted in buffer solutions (pH 7.4) consisting of 50 mM Tris/HCl, 100 mM NaCl, 5 mM CaCl2, and 0.1% bovine serum albumin to the final concentrations given below. Diluted test compound or DMSO (1 μL) in assay buffer (20 μL), diluted serine protease solution (20 μL), and substrate solution (20 μL) were added to 384-well microtiter plates (Greiner Bio-One, Frickenhausen, Germany).

The target in data set [3] is Tissue plasminogen activator (Homo sapiens (Human), UniProt P00750). Description: Serine protease selectivity assay: tPA. The class given is biochemical. Here is the method:
as §1, §2, §3

In data set [4] the target is Recombinant human cathepsin G (Homo sapiens (Human), UniProt P08311). Description: Selectivity: cathepsin G assay. In kind it is biochemical. On the procedure: Recombinant human cathepsin G (CathG) protein (Protein Technologies, Bayer A G) was used. […] IC50 values were calculated using an in-house software.
The target in data set [5] is Plasmin (Homo sapiens (Human), UniProt P00747). The data set can be described thus: Serine protease selectivity assay: plasmin. The class given is biochemical. On the procedure:
as §1, §2, §3

Data set [6] deals with recombinant hamster chymase. The data set can be described thus: Enzymatic chymase activity assay (hamster).
Data set [7] has as its target Factor XIa (Homo sapiens (Human), UniProt P03951). Description: Serine protease selectivity assay: factor XIa. In kind it is biochemical. Here is the method:
as §1, §2, §3

For data set [8], the system named is chymase in mouse thrombus extracts. The data set can be described thus: Intra-thrombus chymase enzymatic activity ex vivo, mouse thrombi. The class given is biochemical. As to conditions: thrombus from venous stenosis in mouse, +10 μM TY-51469. On the procedure: (§4) Plasmin activity was determined by the hydrolysis rate of 50 μM of substrate, D-Ala-Leu-Lys-7-amido-4-methylcoumarin (Sigma Aldrich, Saint-Louis, MO, USA) at 37° C. for 1 h. Chymase activity was determined by the hydrolysis rate of 10 μM of substrate, Suc-Leu-Leu-Val-Tyr-7-amido-4-methylcoumarin (Peptide Institute Inc., Osaka, Japan) at 37° C. for 1 h. The fluorescence released was measured with an Infinite M1000 spectrophotometer (Tecan Group Ltd., Mannerdorf, Switzerland) with λex=370 nm and λem=460 nm.

Data set [9] has as its target Mouse chymase (rmMCP-4) (Mus musculus (Mouse), UniProt P21812). The data set can be described thus: Mouse plasmin degradation by chymase, cleavage products by LC-MS/MS. The class given is biochemical. The note with it: FIG. 3B.
Experimental: (§6) The reaction was stopped with an equal volume of formic acid (FA) (for a final concentration of 4% (v/v) in water) and samples were maintained on ice until protein precipitation.
Proteins from in vitro cleavage assays were first precipitated by the addition of trichloroacetic acid (TCA) to a final concentration of 10% (v/v) and incubated for 30 min at −20° C. […] Protein pellet was washed with cold 100% acetone, air dried, and re-suspended in 50 μL of a solution containing 8 M urea, 10 mM HEPES-KOH (pH 7.4). The protein reduction step was carried out by adding DTT (Thermo Fisher Scientific, Waltham, MA, USA) to a final concentration of 5 mM and boil at 95° C. for 2 min, then incubated at room temperature for 30 min. […] Urea concentration was decreased to 2 M by the addition of 150 μL of 50 mM ammonium bicarbonate (NH4HCO3). The proteins were digested by adding 1 g Pierce MS-grade trypsin (Thermo Fisher Scientific, Waltham, MA, USA) and incubated overnight at 30° C. Digestion was stopped by adding trifluoroacetic acid (TFA) to a final concentration of 0.2% (v/v). The peptides were purified with Pierce C18 100-μL tips column (Thermo Fisher Scientific, Waltham, MA, USA). Briefly, the C18 tip column was first moistened by suctioning 100 μL of 100% acetonitrile (ACN) three times, then equilibrated by suctioning 100 μL of 0.1% (v/v) TFA buffer 3 times. […]
Data set [10] deals with Trypsin (Homo sapiens, UniProt P07477). Description: Serine protease selectivity assay: trypsin. In kind it is biochemical. On the procedure: as §1, §2, §3
Data set [11] deals with mouse venous stenosis model. Description: Blood flow (Doppler ultrasound) in venous stenosis model in mice. In kind it is in vivo. The source says: The main goal in thrombosis is to ensure sufficient blood flow for an appropriate maintenance of the tissue surrounding the vessel. […] Mice were anesthetized during the procedure (2% isoflurane; 4% oxygen) and their abdomens were shaved and covered with ultrasound gel.

Data set [12] deals with T1, human chymase (rCMA-1) (Homo sapiens (Human), UniProt P23946). Description: Human plasmin degradation by chymase, cleavage products by LC-MS/MS. The class given is biochemical. As to conditions: FIG. 3A.
Experimental: as §6
Proteins from in vitro cleavage assays were first precipitated by the addition of trichloroacetic acid (TCA) to a final concentration of 10% (v/v) and incubated for 30 min at −20° C. […] Protein pellet was washed with cold 100% acetone, air dried, and re-suspended in 50 μL of a solution containing 8 M urea, 10 mM HEPES-KOH (pH 7.4). […] The proteins were digested by adding 1 g Pierce MS-grade trypsin (Thermo Fisher Scientific, Waltham, MA, USA) and incubated overnight at 30° C. Digestion was stopped by adding trifluoroacetic acid (TFA) to a final concentration of 0.2% (v/v). The peptides were purified with Pierce C18 100-μL tips column (Thermo Fisher Scientific, Waltham, MA, USA). Briefly, the C18 tip column was first moistened by suctioning 100 μL of 100% acetonitrile (ACN) three times, then equilibrated by suctioning 100 μL of 0.1% (v/v) TFA buffer 3 times. Each peptide sample was passed on the balanced C18 tip column by 10 succeeding up-and-downs of 100 μL of the sample. This step was performed twice in order to administer the entire sample on the column. The C18 tip column was then washed with 100 μL of 0.1% (v/v) TFA buffer 3 times. […] This step was carried out 3 times to obtain a final volume of 300 μL. […]
For data set [13], the system named is mouse venous stenosis (DVT) model. The data set can be described thus: Venous stenosis model in mouse (IVC), thrombus measurement. The class given is in vivo. Here is the method:
By doing this, we ensure that the endothelium is not denuded and that a residual flow of 10% in the IVC still remains. The guts were subsequently moved back in their original location in the abdomen and the abdominal cavity was closed in layers with a braided 5.0 absorbable suture. […] The IVCs were dissected post-euthanasia, and thrombi isolated, measured, weighed, and finally stored at −80° C.
(§5) The stenosis was evaluated 24- or 48-hours post-ligation. The IVCs were dissected, and thrombi were isolated, measured, and weighted.
as §5

Data set [14] concerns the target recombinant human chymase (Homo sapiens (Human), UniProt P23946). The data set can be described thus: Enzymatic chymase activity assay (human).
The target of data set [15] is Thrombin (Homo sapiens (Human), UniProt P00734). Description: Serine protease selectivity assay: thrombin. The class given is biochemical. On the procedure:
as §1, §2, §3

Data set [16] deals with mouse FeCl3-induced injury thrombosis model. The data set can be described thus: Ferric chloride-induced injury at the inferior vena cava in mouse. The class given is in vivo. The note with it: mouse IVC FeCl3 injury; 10 mg/kg TY-51469 intraperitoneal 1 h prior to anesthesia.
Experimental: A laparotomy was performed, and the guts were gently displaced without injury from the abdominal cavity and conserved in 0.9% NaCl solution (37° C.). The IVC was exposed by separation of the vessel between the renal and iliolumbar veins. […] The guts were subsequently moved back in their original location in the abdomen. Mice were sacrificed 30 min later to access the thrombotic area in the IVC. IVCs were dissected and thrombi were isolated and weighted with an analytical balance (0.1 mg accuracy, Entris II, Sartorius).
Data set [17] deals with Plasma kallikrein (Homo sapiens (Human), UniProt P03952). Description: Serine protease selectivity assay: plasma kallikrein. In kind it is biochemical. On the procedure: as §1, §2, §3
Data set [18] deals with recombinant mouse mMCP-4 (rmMCP-4) (Mus musculus (Mouse), UniProt P21812). Description: Plasmin activity in the presence of murine chymase. In kind it is biochemical. As to conditions: mouse plasmin + rmMCP-4; fulacimstat 0.1-[…], TY-51469 0.1 or 1 μM. Here is the method: Active murine cathepsin C was diluted to 20 μg/mL in cathepsin C buffer (50 mM MES, 50 mM NaCl, 5 mM DTT, pH 5.5). Activation was performed by adding equal volumes of recombinant chymase and cathepsin C, adding 50 μg/mL heparin and incubating 1 h at room temperature. […] Plasmin activity was determined by the hydrolysis rate of 50 μM of substrate, D-Ala-Leu-Lys-7-amido-4-methylcoumarin (Sigma Aldrich, Saint-Louis, MO, USA) at 37° C. for 1 h, combined in a white 96-well microtitre plate.

The subject of data set [19] is mouse tail bleeding model. Description: Tail bleeding time in mouse. The class given is in vivo. On the procedure:
The tail was cut 3 mm starting from the extremity. The time at which the bleeding stopped was noted. After 30 min, all animals were euthanized.

For data set [20], the target named is T1, human chymase (rCMA-1). Description: Plasmin activity in the presence of human chymase. The class given is biochemical. As to conditions: human plasmin + rCMA-1; fulacimstat 0.1-[…], TY-51469 0.1 or 1 μM. Here is the method: Active murine cathepsin C was diluted to 20 μg/mL in cathepsin C buffer (50 mM MES, 50 mM NaCl, 5 mM DTT, pH 5.5). Activation was performed by adding equal volumes of recombinant chymase and cathepsin C, adding 50 μg/mL heparin and incubating 1 h at room temperature.

Data set [21] deals with plasmin in mouse thrombus extracts (Mus musculus (Mouse), UniProt P20918). Description: Intra-thrombus plasmin enzymatic activity ex vivo, mouse thrombi. The class given is biochemical. As to conditions: thrombus from venous stenosis in mouse, +10 μM TY-51469. On the procedure:
as §4

The conditions of data set [22]: oral intake; cited from earlier work.
For data set [23] the following is noted: cited from earlier work.
Where [24] appears, read: 10 mg/kg TY-51469 i.p. 1 h after start of stenosis, 6 h post-ligation.
[25] abbreviates: 10 mg/kg TY-51469 i.p. 1 h after start of stenosis, 24 h post-ligation.
The mark [26] stands for this setting: TY-51469 group, non-ligated (pre-ligation baseline).
The mark [27] stands for this setting: TY-51469 0.1 mg/kg i.p. 1 h after initiation of stenosis, observation 24 h.
[28] abbreviates: TY-51469 1 mg/kg i.p. 1 h after initiation of stenosis, observation 24 h.
Where [29] appears, read: TY-51469 10 mg/kg i.p. 1 h after initiation of stenosis, observation 24 h.
Where [30] appears, read: TY-51469 10 mg/kg i.p. 24 h after initiation of stenosis, observation 48 h.

On to `Cl.O=c1cc(C2CCNCC2)n2nc3cccc(Cl)c3c2[nH]1` [Example 3 in WO2015067549], for which the “tPA-induced fibrinolysis of human blood halos” value in [1] was “very significantly reduced”.

As usually defined, the IC50 is the midpoint of a concentration-inhibition curve. Consider `Cc1c(S(=O)(=O)Nc2ccc(-c3nc(C(=O)O)cs3)cc2S(C)(=O)=O)sc2ccc(F)cc12` [TY-51469, 2-(4-((5-fluoro-3-methylbenzo-[b]thiophene)-2-sulfonamido)-3-(methylsulfonyl)phenyl)thiazole-4-carboxylic acid], for which the concentration for half-maximal inhibition (IC50) in data set [2] is > 2 µM; in [3], > 2 µM; in data set [4] (Cathepsin G) it was 1.3 µM; in data set [5], > 2 µM; in data set [6], 0.066 µM; in data set [7], > 2 µM. In addition, the IC50 in data set [10] is > 2 µM; in [14], 0.02 µM; in data set [15], > 2 µM; in data set [17] it was > 2 µM. Also, in [4] (cathepsin G vs chymase), the “less potency on cathepsin G than chymase” value was 60 fold. This molecule showed a Chymase activity in data set [8] of 0.33 ± 0.25 nM AMC. The “degradation of plasmin by chymase” value in data set [9] and in [12] was “prevented” each time. For the same molecule, the Abdominal aorta velocity in [11] (setting [24]) turned out to be 487.6 ± 33.1 mm/s; in data set [11] (setting [25]), 505.8 ± 40.4 mm/s; in data set [11] (setting [26]) it was 508.2 ± 29.7 mm/s. The figures for the “Inferior vena cava velocity” value in data set [11] (setting [24]), in data set [11] (setting [25]) and in data set [11] (setting [26]) were 171.6 ± 27.1 mm/s, 158.5 ± 18.3 mm/s and 124.6 ± 28.7 mm/s, respectively. Moreover, the Thrombus length was determined as 3.79 mm in [13] (setting [27]), 1.79 mm in data set [13] (setting [28]), 0.22 mm in [13] (setting [29]) and 1.0 mm in data set [13] (setting [30]). For the same molecule, the Thrombus weight is given as 8.19 mg in data set [13] (setting [27]); 4.04 mg in data set [13] (setting [28]); 0.47 mg in data set [13] (setting [29]); 1.29 mg in data set [13] (setting [30]); 1.31 mg in [16]. The “plasmin activity (fluorescence generation) in presence of chymase” value in [18] and in [20] was “increased again concentration-dependently” in each case. In addition, the “impact on bleeding time (in words)” value in data set [19] (mouse tail bleeding model) was “no impact on the bleeding time”. Also, in data set [19] (mouse tail bleeding, TY-51469 10 mg/kg), the Bleeding time prolongation is given as 1.0 xfold of Ctr. In addition, in data set [19] (mouse tail bleeding, TY-51469 10 mg/kg IP 1 h prior), the Bleeding time turned out to be 4.08 min. The Plasmin activity in [21] was found to be 13.16 ± 1.26 nM AMC.

As for `Cn1c(=O)oc2cc(-n3cc(C(=O)O)c(=O)n([C@@H]4CCc5c4cccc5C(F)(F)F)c3=O)ccc21` [fulacimstat, 1-(3-methyl-2-oxo-2,3-dihydro-1,3-benzoxazol-6-yl)-2,4-dioxo-3-[(1R)-4-(trifluoromethyl)-2,3-dihydro-1H-inden-1-yl]-1,2,3,4-tetrahydropyrimidine-5-carboxylic acid], the “degradation of plasmin by chymase” value in [9] was “prevented”. In addition, in data set [18], the “plasmin activity (fluorescence generation) in presence of chymase” value is on record as “increased again concentration-dependently”. Also, in [22], the oral bioavailability entry was “bioavailable after oral intake”.

On to “tPA: Recombinant tissue-type plasminogen activator (rtPA, alteplase), the most widely used fibrinolytic drug”, for which the “dominant half-life in human plasma” value in data set [23] is < 5 min.
